We go through one molecule from patent US8957047B2, “GLA monotherapy for use in cancer treatment” (Immune Design Corp., priority 2013, dated 2015).

The test system of test [1] is B16F10 cells. The test is described as follows: B16F10 footpad model, GLA plus checkpoint inhibitor (Example 5). The format is in vivo, C57B1/6 mice. The following applies: GLA alone: 5 μg GLA-SE/2% SE i.t. from Day 4 every 3-4 days; FIG. 7B. On the procedure:
Mice were given i.t. administrations of 5 μg GLA-SE/2% SE (or 2% SE vehicle control) plus intraperitoneal (i.p.) administrations of a CPI [anti-PDL1, anti-PD1, anti-CTLA4 (clone 9H10), anti-CTLA4 (clone 9D9), or LTF2 control antibody] at 100 μg starting on Day 4 and every 3-4 days thereafter until the end of study.

Test [2] relates to B16F10 cells. The test is described as follows: B16F10 footpad model, GLA i.t. plus anti-CD40 i.p. (Example 6). The format is in vivo, C57B1/6 mice. The following applies: GLA alone: 5 μg GLA-SE/2% SE i.t. from Day 4 every 3-4 days; FIG. 8A. The protocol:
Mice were given i.t. administrations of 5 μg GLA-SE/2% SE (or 2% SE vehicle control) plus i.p. administrations of anti-CD40 (or 2A3 control antibody) at 100 μg, starting on Day 4 and every 3-4 days thereafter until the end of study (FIG. 8A).

Test [3] has as its system B16F10 cells. The test is described as follows: B16F10 footpad model, optimal time to begin GLA administration (Example 5). Type of test: in vivo, C57BL/6 mice. The following applies: 5 μg GLA-SE/2% SE i.t. starting Day 4 post-tumor injection, every 3-4 days; FIG. 7A. On the procedure: To determine the optimal time to begin GLA administration, female C57BL/6 mice (n=5 per group) were inoculated with 5×10^5 B16F10 cells, subcutaneously in the right footpad on Day 0. Mice were given intratumoral (i.t.) administrations of 5 μg GLA-SE/2% SE (or 2% SE vehicle control) on Day 4, Day 9, or Day 14, and every 3-4 days thereafter until the end of study.

The subject of test [4] is B16F10 cells. The test is described as follows: B16F10 model, GLA i.t. plus anti-CD40 i.t., suboptimal doses (Example 6). Type of test: in vivo, mice. The following applies: GLA alone: 2 μg GLA-SE/2% SE i.t. on Day 8 and 15 post-tumor injection; FIG. 8B. The protocol:
To determine whether anti-CD40 exerted anti-tumor effects in the tumor microenvironment, tumor-bearing mice were given i.t. administrations of 2 μg GLA-SE/2% SE (or 2% SE vehicle control) on Day 8 and 15 post-tumor injection and i.t. administrations of 50 μg anti-CD40 (or 2A3 control antibody) on Day 5 and 12 post-tumor injection (FIG. 8B). Suboptimal doses for GLA and anti-CD40 were given to avoid masking of a possible synergistic effect of the combination.

The next test has as its system B16 melanoma cells. Put plainly: Murine B16 melanoma model, subcutaneous inoculation (Example 1). The format is in vivo, mice. The following applies: 5 μg GLA-SE i.m. on Day 0, Day 9 and Day 14; relative to saline; FIG. 2. The protocol:
The B16 murine melanoma model is an accepted animal model for both solid tumor formation as well as metastasis (see e.g., Curr Protoc Immunol. 2001 May; CHAPTER 20: Unit-20.1. doi:10.1002/0471142735.im2001s39). In this study, mice were inoculated subcutaneously with 3×10^5 B16 cells on Day minus 9 (n=10 per group). Mice were treated with either saline or 5 μg GLA-SE i.m. on Day 0, Day 9 and Day 14.

Turning to `CCCCCCCCCCCCCC(=O)O[C@H](CCCCCCCCCCC)CC(=O)O[C@@H]1[C@@H](NC(=O)C[C@H](CCCCCCCCCCC)OC(=O)CCCCCCCCCCCCC)[C@H](OC[C@H]2O[C@H](O)[C@H](NC(=O)C[C@H](O)CCCCCCCCCCC)[C@@H](OC(=O)C[C@H](O)CCCCCCCCCCC)[C@@H]2O)O[C@H](CO)[C@H]1OP(=O)(O)O` [GLA, glucopyranosyl lipid A], the B16F10 tumor growth entry with B16F10 cells [1], in the test with B16F10 cells [2] and with B16F10 cells [3] was “delayed B16F10 tumor growth” in each case. In addition, in the test on B16F10 cells [4], the tumor growth result is “delayed tumor growth”. The percent survival result with B16 melanoma cells was “improved survival rate”.
